Experimental data reported in article PMC4865820, “Branched Peptide, B2088, Disrupts the Supramolecular Organization of Lipopolysaccharides and Sensitizes the Gram-negative Bacteria” (Scientific Reports, 2016).
Positions of bridges follow the written chain, without caps; N, C: chain ends. Non-standard residues stand in square brackets, D forms with d. Residues, ends and D or L forms follow the SMILES beside them. Chains are numbered I, II in the order given. *: point of attachment. X1 = CC[C@H](C)CCCCC(=O)*; Dab = NCC[C@H](N)C(=O)O

Tests used:
P. aeruginosa ATCC 9027 = assay: Mice model of infectious keratitis; assay type: in vivo, C57BL6 mice; details: for Corneal bacterial burden: 0.15% gatifloxacin or 0.05% B2088 alone
Method: The marked synergism between B2088 and gatifloxacin in the mammalian cell culture model prompted us to investigate the efficacy of the combinations in vivo. A mouse model of keratitis was used to examine the efficacy of peptide-antibiotics combinations. After infection of the cornea with P. aeruginosa ATCC 9027 strains, mice were treated with gatifloxacin (0.15% w/v) or B2088 (0.05%) alone as well as gatifloxacin (0.15%) in combination with B2088 (0.05% w/v). […] (Fig. 7c,d and Supplementary Fig. S3).
Wild type C57BL6 (6–8 weeks old and weighs about 20-30 gram) female mice purchased from National University of Singapore were used for this study. P. aeruginosa ATCC 9027 was grown overnight in TSA (Tryptic Soy Agar) at 37 °C. Concentration of 3 × 10^8 bacterial stock was prepared for mice corneal infection with United States Phosphate Buffer (USP) by resuspending few colonies from the overnight cultured TSA plates.
Healthy mice with good corneal clarity were chosen for this study through careful monitoring with slit-lamp biomicroscopy. A total of 60 mice were used for this study (n = 12 for 5 groups) at different time points (day1, day2, day3 post treatment). The animals were anesthetized subcutaneously by 0.2 ml of ketamine (100 mg/ml) and 0.1 ml of xylazil (20 mg/ml) in 0.7 ml of normal saline (0.08 ml/mice). […] Topical application of bacteria suspension (10 μl) was applied to the scratched cornea. All the animals had been treated with the antibiotics or peptide/antibiotics combinations (3 times/day) started from day1 post infection.
At post treatment day1, day 2 and day 3, four animals from each group were euthanized. The infected corneas was dissected and processed for colony counting. Single individual cornea from different groups was homogenized in sterile 0.9% NaCl containing 0.25% BSA and diluted serially (10^1 to 10^2 fold dilution), plated in duplicates on TSA plates and incubated for 48 h at 37 °C. The number of viable bacteria was enumerated as before.

FITC-labelled LPS = assay: FITC-LPS fluorescence interaction assay; assay type: binding; details: 5 μg/ml FITC-LPS, ex 485/em 515 nm, 25 °C
Text: To confirm the findings from ITC experiments, we examined the ultrastructure of LPS or the LPS/B2088 complex by electron microscopy. TEM analysis of the LPS indicated a ribbon-like structure (Fig. 3a), consistent with previous studies. For the LPS-B2088 complex, the peptide:LPS ratios were chosen to epitomize the initial (high peptide:LPS) or final (low peptide:LPS) injections of the ITC curves shown in Fig. 2a–c. At low peptide:LPS ratio (~0.04), more electron-dense surface appeared presumably due to binding of the peptide to LPS may cause partial/complete neutralization of the negative charges and the ribbon-like structure of LPS remained intact (Fig. 3b). […]
The interaction between FITC-LPS was determined by monitoring the change in fluorescence emission intensity (λex = 485 nm and λem = 515 nm) using a Quanta Master spectrophotometer (Photon Technology International, NJ, USA) with a constant slit width of 0.5 nm at 25 °C. Briefly, the emission intensity of 5 μg/ml of FITC-LPS was monitored continuously in a 1 ml cuvette until it remained constant. 10 μl a concentrated stock solution of B2088 was added and the changes in fluorescence intensity were recorded as before.

[1] = test system: LPS (E. coli serotype 055:B5); assay: BODIPY TR cadaverine (BC) displacement assay with LPS; assay type: binding; details: 5 mM HEPES pH 7.4, duplicates; for ED50 (50% displacement of BC dye from LPS; also called BC50): fluorescence ex 580/em 620 nm, with respect to PMB; for EC50: no unit in table, ED50 values in μM, read-out: BC50 (LPS binding)
Procedure, shortened: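 Peptides (0.02–25.6 μM, two-fold dilutions) mixed 1:1 with BODIPY TR cadaverine:LPS (E. coli 055:B5) mixture in 5 mM HEPES pH 7.4; fluorescence at 580/620 nm. Displacement normalized to polymyxin B (Fmax) and probe:LPS alone (F0); ED50 from curve fit, duplicates.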

SMILES | Reduction of antibiotic use in the presence of B2088 (P. aeruginosa ATCC 9027; 0.05% B2088 with gatifloxacin) | Corneal bacterial burden (P. aeruginosa ATCC 9027) | Peptide concentration above which dequenching of FITC-LPS fluorescence occurred (FITC-labelled LPS) | ED50 (50% displacement of BC dye from LPS; also called BC50) [1] | EC50 [1] | Corneal clarity and bacterial load (P. aeruginosa ATCC 9027; topical 0.3% gatifloxacin, 3 times/day, vs PBS-treated mice)
CC(C)[C@H](NC(=O)[C@H](CCCCN)NC(=O)[C@H](CCCNC(=N)N)NC(=O)CNC(=O)[C@@H](N)CCCNC(=N)N)C(=O)N[C@H](C(=O)N[C@@H](CCCNC(=N)N)C(=O)N[C@@H](CCCNC(=N)N)C(=O)NCCCC[C@H](NC(=O)[C@H](CCCNC(=N)N)NC(=O)[C@H](CCCNC(=N)N)NC(=O)[C@@H](NC(=O)[C@@H](NC(=O)[C@H](CCCCN)NC(=O)[C@H](CCCNC(=N)N)NC(=O)CNC(=O)[C@@H](N)CCCNC(=N)N)C(C)C)C(C)C)C(=O)N[C@@H](CCCCN)C(=O)O)C(C)C [B2088] (I: H-RGRKVVRRKK-OH / II: H-RGRKVVRR; amide I:9-II:C; N-terminus and C-terminus assumed) | about 50% | increased bacterial burden | above 25 μg/ml | 1.92 ± 0.03 µM | 1.9 ± 0.1 µM | 
COc1c(N2CCNC(C)C2)c(F)cc2c(=O)c(C(=O)O)cn(C3CC3)c12 (stereo not drawn) [Gatifloxacin] |  | increased bacterial burden |  |  |  | clear cornea and less bacterial load
CC[C@H](C)CCCCC(=O)N[C@@H](CCN)C(=O)N[C@H](C(=O)N[C@@H](CCN)C(=O)N[C@H]1CCNC(=O)[C@H]([C@@H](C)O)NC(=O)[C@H](CCN)NC(=O)[C@H](CCN)NC(=O)[C@H](CC(C)C)NC(=O)[C@@H](Cc2ccccc2)NC(=O)[C@H](CCN)NC1=O)[C@@H](C)O [Polymyxin B, polymyxin B, reference compound] (X1-[Dab]T[Dab][Dab][Dab][dF]L[Dab][Dab]T; lactam 4-C (inferred); N-terminus assumed) |  |  |  | 1.56 ± 0.02 µM | 1.56 ± 0.02 µM | 
